Where only a bound is given, the exact number is not on record here.

As a reminder, the melting point is the temperature, or range, at which the solid turns liquid.

`O=C1NC(=O)/C(=C/c2ccc(-c3cc(Cl)c(O)c(C45CC6CC(CC(C6)C4)C5)c3)nc2)S1` [Compound 43] displayed a melting point of 339 to 342 °C.

On to `O=C1NC(=O)/C(=C/c2ccc(-c3ccc(O)c(C45CC6CC(CC(C6)C4)C5)c3)nc2)S1` [Compound 33], for which the melting point was 315 to 318 °C. As for `COc1ccc(-c2ccc3cc(C4SC(=O)NC4=O)ccc3c2)cc1C12CC3CC(CC(C3)C1)C2` (stereo not shown) [Compound 23, 5-[6-(3-[1-Adamantyl]-4-methoxyphenyl)-naphthalen-2-yl]-2,4-thiazolidinedione], the melting point was in the range of 205 to 207 °C. The value for `COc1ccc(-c2ccc(/C=C3\SC(=S)NC3=O)cc2)cc1C12CC3CC(CC(C3)C1)C2` [Compound 6, 4-[3-(1-Adamantyl)-4-methoxyphenyl]-benzylidene-2-thioxo-4-thiazolidinedione] was 313 to 317 °C.

Take `O=C1NC(=O)/C(=C/c2ccc(-c3cc(F)c(O)c(C45CC6CC(CC(C6)C4)C5)c3)nc2)S1` [Compound 37]: the melting point lay within 307 to 310 °C. The value for `O=C1NC(=O)/C(=C/c2ccc(-c3ccc(O)c(C45CC6CC(CC(C6)C4)C5)c3)c([N+](=O)[O-])c2)S1` [Compound 50, 4-[3-(1-Adamantyl)-4-hydroxy-phenyl]-5-nitrobenzylidene-2,4-thiazolidinedione] was 262 to 264 °C; that for `CC(C)(C)c1cc(-c2ccc(/C=C3\SC(=O)NC3=O)cc2)ccc1O` [Compound 39, 4-[3-(t-Butyl)-4-hydroxy-phenyl]benzylidene-2,4-thiazolidinedione] was 256 to 257 °C; that for `COc1ccc(-c2ccc3cc(CC4SC(=O)NC4=O)ccc3c2)cc1C12CC3CC(CC(C3)C1)C2` (stereo not shown) [Compound 9, 6-[3-(1-Adamantyl)-4-methoxyphenyl]-naphthalen-2-yl-methyl-2,4-thiazolidinedione] was 251 to 253 °C. The value for `C/C(=C1\SC(=O)NC1=O)c1ccc(-c2ccc(O)c(C34CC5CC(CC(C5)C3)C4)c2)nc1` [Compound 55, (E)-{1-[6-(3-Adamantan-1-yl-4-hydroxy-phenyl)-pyridin-3-yl]-ethylidene}-thiazolidine-2,4-dione] was 224 to 225 °C; that for `O=C1NC(=O)/C(=C/c2ccc(-c3cc(F)c(O)c(C45CC6CC(CC(C6)C4)C5)c3)cc2)S1` [Compound 34, 4-[3-(1-Adamantyl)-4-hydroxy-5-fluoro-phenyl]benzylidene-2,4-thiazolidinedione] was 305 to 308 °C; that for `Cc1cc(/C=C2\SC(=O)NC2=O)ccc1-c1ccc(O)c(C23CC4CC(CC(C4)C2)C3)c1` [Compound 48, 4-[3-(1-Adamantyl)-4-hydroxy-phenyl]-5-methylbenzylidene-2,4-thiazolidinedione] was > 305 °C (dec.).

As to `O=C1NC(=O)/C(=C/c2ccc(-c3ccc(O)c(C45CC6CC(CC(C6)C4)C5)c3)c(F)c2)S1` [Compound 41, 4-[3-(1-Adamantyl)-4-hydroxy-phenyl]-5-fluorobenzylidene-2,4-thiazolidinedione], the melting point is 270 to 274 °C. The value for `O=C1NC(=O)/C(=C/c2ccc(-c3cc(Cl)c(O)c(C45CC6CC(CC(C6)C4)C5)c3)cc2)S1` [Compound 38, 4-[3-(1-Adamantyl)-4-hydroxy-5-chloro-phenyl]benzylidene-2,4-thiazolidinedione] was 323 to 328 °C; that for `O=C1NC(=O)C(c2ccc3cc(-c4ccc(O)c(C56CC7CC(CC(C7)C5)C6)c4)ccc3c2)S1` (stereo not shown) [Compound 24, 5-[6-(3-[1-Adamantyl]-4-hydroxyphenyl)-naphthalen-2-yl]-2,4-thiazolidinedione] was 312 to 314.5 °C; that for `C/C(=C1/SC(=O)NC1=O)c1ccc(-c2ccc(O)c(C34CC5CC(CC(C5)C3)C4)c2)nc1` [Compound 54, (Z)-{1-[6-(3-Adamantan-1-yl-4-hydroxy-phenyl)-pyridin-3-yl]-ethylidene}-thiazolidine-2,4-dione] was 181 to 182 °C. The value for `O=C1NC(=O)C(Cc2ccc3cc(-c4ccc(O)c(C56CC7CC(CC(C7)C5)C6)c4)ccc3c2)S1` (stereo not shown) [Compound 16, 6-[3-(1-Adamantyl)-4-hydroxyphenyl]-naphthalen-2-yl-methyl-2,4-thiazolidinedione] was 270.5 to 272 °C. The value for `O=C1NC(=O)/C(=C/c2ccc(-c3cc([N+](=O)[O-])c(O)c(C45CC6CC(CC(C6)C4)C5)c3)nc2)S1` [Compound 53] was 291 to 293 °C; that for `O=C1NC(=O)/C(=C/c2ccc(-c3ccc(O)c(C45CC6CC(CC(C6)C4)C5)c3)c(OC(F)(F)F)c2)S1` [Compound 46, 4-[3-(1-Adamantyl)-4-hydroxy-phenyl]-5-triflouromethoxybenzylidene-2,4-thiazolidinedione] was 238 to 240 °C. Molecule `COc1cc(-c2ccc(/C=C3\SC(=O)NC3=O)cn2)cc(C23CC4CC(CC(C4)C2)C3)c1O` [Compound 44] yielded a melting point of 211 to 216 °C. In the case of `CCOc1cc(/C=C2\SC(=O)NC2=O)ccc1-c1ccc(O)c(C23CC4CC(CC(C4)C2)C3)c1` [Compound 49, 4-[3-(1-Adamantyl)-4-hydroxy-phenyl]-5-ethoxybenzylidene-2,4-thiazolidinedione] it was 298 to 302 °C; in that of `O=C1NC(=O)/C(=C/c2ccc(-c3ccc(O)c(C45CC6CC(CC(C6)C4)C5)c3)c(Cl)c2)S1` [Compound 48, 4-[3-(1-Adamantyl)-4-hydroxy-phenyl]-5-chlorobenzylidene-2,4thiazolidinedione], > 280 °C (dec.); in that of `CC(C)(C)c1cc(-c2ccc(/C=C3\SC(=O)NC3=O)cn2)ccc1O` [Compound 40], 303 to 304 °C. The value for `O=C1NC(=O)/C(=C/c2ccc(-c3ccc(O)c(C45CC6CC(CC(C6)C4)C5)c3)cc2F)S1` [Compound 42, 4-[3-(1-Adamantyl)-4-hydroxy-phenyl]-6-fluorobenzylidene-2,4-thiazolidinedione] was 307 to 309 °C; that for `Nc1cc(/C=C2\SC(=O)NC2=O)ccc1-c1ccc(O)c(C23CC4CC(CC(C4)C2)C3)c1` [Compound 51, 4-[3-(1-Adamantyl)-4-hydroxy-phenyl]-5-aminobenzylidene-2,4-thiazolidinedione] was 167 to 169 °C. In the case of `COc1ccccc1-c1cc(-c2ccc(/C=C3\SC(=O)NC3=O)cc2)cc2c1OCO2` [Compound 4, 4-[3-(2-Methoxyphenyl)-4,5-methylenedioxyphenyl]-benzylidene-2,4-thiazolidinedione] it was 227 to 228 °C (dec.); in that of `Cc1cc(O)c(C23CC4CC(CC(C4)C2)C3)cc1-c1ccc(/C=C2\SC(=O)NC2=O)cc1` [Compound 36, 4-[3-(1-Adamantyl)-4-hydroxy-6-methyl-phenyl]benzylidene-2,4-thiazolidinedione], 275 to 280 °C.

The molecule `CC(c1ccc(-c2ccc(O)c(C34CC5CC(CC(C5)C3)C4)c2)nc1)C1SC(=O)NC1=O` (stereo not shown) [Compound 52, {1-[6-(3-Adamantan-1-yl-4-hydroxy-phenyl)-pyridin-3-yl]-ethyl}-thiazolidine-2,4-dione] came in with a melting point of 169 to 171 °C.

Molecule `COCOc1ccc(-c2ccc(/C=C3\SC(=O)NC3=O)cc2)cc1C12CC3CC(CC(C3)C1)C2` [Compound 10, 4-[3-(1-Adamantyl)-4-methoxymethoxyphenyl]-benzylidene-2,4-thiazolidinedione] came in with a melting point of 253 to 254.5 °C. The value for `O=C1NC(=O)/C(=C/c2ccc(-c3ccc(O)c(C45CC6CC(CC(C6)C4)C5)c3)cc2)S1` [Compound 7, 4-[3-(1-Adamantyl)-4-hydroxyphenyl]benzylidene-2,4-thiazolidinedione] was 307 to 308.5 °C; that for `O=C1NC(=O)/C(=C/c2ccc(-c3ccc(O)c(C45CC6CC(CC(C6)C4)C5)c3)c(O)c2)S1` [Compound 35, 4-[3-(1-Adamantyl)-4-hydroxy-phenyl]-5-hydroxybenzylidene-2,4-thiazolidinedione] was 224 to 226 °C. The value for `CC1(c2cc(-c3ccc(/C=C4\SC(=O)NC4=O)cn3)ccc2O)CCCCC1` [Compound 47] was 293 to 295 °C.
